The values that follow come from US20240325747A1, “COMPOSITIONS AND METHODS OF A CONCOMITANT THERAPY OF ALTERNATING ELECTRIC FIELDS AND N-CADHERIN INHIBITOR” (NOVOCURE GMBH, priority 2023, published 2024).

Assay [1] concerns A2780 cells. The assay is described as follows: Calcium switch assay, immunoblot of AKT phosphorylation (Ser473) after TTFields. The class given is cell-based. The following applies: A2780, TTFields 200 kHz 72 h then 4 mM EGTA; compared with TTFields-treated cells under normal calcium levels. As for the experimental part: (§1) FIGS. 10A-10E show N-cadherin engagement functions upstream of AKT activation during long-term TTFields application. (FIG. 10A) H1299 cells were either left untreated or treated with TTFields (150 kHz) for 72 h. Left panel: Confocal fluorescence microscopy images of N-cadherin in control and TTFields-treated cells are shown. Blue, DAPI-stained DNA; Red, F-actin; Green, N-cadherin; Scale bars, 20 μm. Right panel: Quantification of N-cadherin expression, shown as mean±SEM. *p<0.05; unpaired t-test: N≥2. (FIGS. 10B, 10C) A2780 and H1299 cells were treated with TTFields (200 kHz and 150 kHz, respectively) for 72 h and then: left untreated (No EGTA), treated with 4 mM EGTA (EGTA), or treated with 4 mM EGTA subsequently replaced with serum-free calcium-containing medium (EGTA/Ca^+2). (FIG. 10B) Representative phase-contrast images. Scale bars, 100 μm. (FIG. 10C) Upper panels: Samples were immunoblotted for AKT, pAKT (Ser473), and GAPDH. […]
(§2) NSCLC cells (FIGS. 4—H1299 cells) or ovarian cancer cells (FIGS. 5—A2780 cells) treated with TTFields for 72 hours were incubated with […] EGTA to disrupt cell-cell contacts. […] Relative protein densities of Akt on the Ser-473 ratio were determined. […]

In assay [2] the test system is H1299 cells. Described as above. In kind it is cell-based. The following applies: H1299, TTFields 150 kHz 72 h then 4 mM EGTA; compared with TTFields-treated cells under normal calcium levels. As for the experimental part: as §1, §2
Assay [3] has as its system A2780 cells. The assay is described as follows: Calcium switch assay, cell morphology (phase-contrast). In kind it is cell-based. The following applies: A2780, control and TTFields (72 h) conditions, 4 mM EGTA. As for the experimental part: as §1, with “GAPDH. Lower panels: Densitometric analysis (arbitrary units normalized to the expression of the housekeeping protein GAPDH), is shown as mean±SEM. *p<0.05, and *** p<0.001; one-way ANOVA followed by Tukey's post hoc test: N≥2.” for “GAPDH.”

The subject of assay [4] is H1299 cells. The assay is described as above. The following applies: H1299, control and TTFields (72 h) conditions, 4 mM EGTA. In kind it is cell-based. As for the experimental part: as §1, with “GAPDH. Lower panels: Densitometric analysis (arbitrary units normalized to the expression of the housekeeping protein GAPDH), is shown as mean±SEM. *p<0.05, and *** p<0.001; one-way ANOVA followed by Tukey's post hoc test: N≥2.” for “GAPDH.”

Another assay relates to angiogenesis. The following applies: cited from earlier work.
A further assay deals with tumor microenvironment. The following applies: systemic ADH-1; cited from earlier work.

`O=C(O)CN(CCOCCOCCN(CC(=O)O)CC(=O)O)CC(=O)O` [EGTA, ethylene glycol-bis (β-aminoethyl ether)-N,N,N′,N′-tetraacetic acid]: the “AKT phosphorylation (Ser473)” value in the assay on A2780 cells [1] and in the assay on H1299 cells [2] was “reduced phosphorylation of AKT” in each case. Further, the Cell morphology result in the assay with A2780 cells [3] and in the assay with H1299 cells [4] was “rounded morphology” each time.

With “N-Ac-CHAVC-NH2 (also: cyclic, type not given here) [ADH-1, cyclic peptide N-cadherin antagonist (CHAVC]”, the Angiogenesis entry with angiogenesis is reported as “inhibit angiogenesis”. The Tumor growth entry with tumor microenvironment is “modulate tumor growth through activation of the AKT pathway”.
